Laboratory results reported in BindingDB's records for doi:10.1021/jm970141k (University of North Texas, 1997).

Experiment: In vitro inhibition of Acetylcholinesterase Activity in octopus brain

**Q.** With `CCCCCSC(=O)OCC[N+](C)(C)C` [Trimethyl-(2-pentylsulfanylcarbonyloxy-ethyl)-ammonium; chloride] as the molecule, how does the Ki read?
**A.** The Ki was 2000 nM.
